System: NOMO1
Assay: cell viability relative to DMSO control; higher = less cytotoxic
Details: 48 h
Outline: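 NOMO1 or SEM (500 cells/well) or P12-Ichikawa (1000 cells/well) leukemia cells were adapted for at least four passages in each medium. They were seeded in 1536-well plates (5 μl) and pin-dosed with library compounds in DMSO over an 11-point threefold series, 47 μM to 0.79 nM. CellTiter-Glo One luminescence was read after 48 h at 37°C. Viability is the per-plate percentage relative to DMSO wells, with cell-free wells as background.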

[1] = RPMI 5 mM glucose + 10% FBS, 0.000781 µM
[2] = RPMI 5 mM glucose + 10% FBS, 0.00234 µM
[3] = RPMI 5 mM glucose + 10% FBS, 0.00702 µM
[4] = RPMI 5 mM glucose + 10% FBS, 0.0211 µM
[5] = RPMI 5 mM glucose + 10% FBS, 0.0632 µM
[6] = RPMI 5 mM glucose + 10% FBS, 0.19 µM
[7] = RPMI 5 mM glucose + 10% FBS, 0.569 µM
[8] = RPMI 5 mM glucose + 10% FBS, 1.71 µM
[9] = RPMI 5 mM glucose + 10% FBS, 5.12 µM
[10] = RPMI 5 mM glucose + 10% FBS, 15.4 µM
[11] = RPMI 5 mM glucose + 10% FBS, 46.1 µM
[12] = RPMI 5 mM glucose + 10% dialyzed FBS, 0.000781 µM
[13] = RPMI 5 mM glucose + 10% dialyzed FBS, 0.00234 µM
[14] = RPMI 5 mM glucose + 10% dialyzed FBS, 0.00702 µM
[15] = RPMI 5 mM glucose + 10% dialyzed FBS, 0.0211 µM
[16] = RPMI 5 mM glucose + 10% dialyzed FBS, 0.0632 µM
[17] = RPMI 5 mM glucose + 10% dialyzed FBS, 0.19 µM
[18] = RPMI 5 mM glucose + 10% dialyzed FBS, 0.569 µM
[19] = RPMI 5 mM glucose + 10% dialyzed FBS, 1.71 µM
[20] = RPMI 5 mM glucose + 10% dialyzed FBS, 5.12 µM
[21] = RPMI 5 mM glucose + 10% dialyzed FBS, 15.4 µM
[22] = RPMI 5 mM glucose + 10% dialyzed FBS, 46.1 µM
[23] = HPLM + 10% dialyzed FBS, 0.000781 µM
[24] = HPLM + 10% dialyzed FBS, 0.00234 µM
[25] = HPLM + 10% dialyzed FBS, 0.00702 µM
[26] = HPLM + 10% dialyzed FBS, 0.0211 µM
[27] = HPLM + 10% dialyzed FBS, 0.0632 µM
[28] = HPLM + 10% dialyzed FBS, 0.19 µM
[29] = HPLM + 10% dialyzed FBS, 0.569 µM
[30] = HPLM + 10% dialyzed FBS, 1.71 µM
[31] = HPLM + 10% dialyzed FBS, 5.12 µM
[32] = HPLM + 10% dialyzed FBS, 15.4 µM
[33] = HPLM + 10% dialyzed FBS, 46.1 µM

Row | SMILES | cell viability [1] | cell viability [2] | cell viability [3] | cell viability [4] | cell viability [5] | cell viability [6] | cell viability [7] | cell viability [8] | cell viability [9] | cell viability [10] | cell viability [11] | cell viability [12] | cell viability [13] | cell viability [14] | cell viability [15] | cell viability [16] | cell viability [17] | cell viability [18] | cell viability [19] | cell viability [20] | cell viability [21] | cell viability [22] | cell viability [23] | cell viability [24] | cell viability [25] | cell viability [26] | cell viability [27] | cell viability [28] | cell viability [29] | cell viability [30] | cell viability [31] | cell viability [32] | cell viability [33]
1 | C[N]1C=C(C=N1)C2=CC=C3N=CC\4=C(N(C(=O)\C=C4)C5=CC6=C(CCN6C(=O)C=C)C=C5)C3=C2 | 100% | 104% | 108% | 95.2% | 102% | 109% | 95.7% | 88.8% | 69.3% | 13.5% | 9.25% | 105% | 108% | 109% | 119% | 97.2% | 107% | 96% | 90.6% | 47.4% | 6.23% | 5.9% | – | – | – | – | – | – | – | – | – | – | –
2 | CN1CCN(CCCN2c3ccccc3Sc3ccc(Cl)cc32)CC1.O=C(O)/C=C\C(=O)O.O=C(O)/C=C\C(=O)O | 97.8% | 106% | 112% | 107% | 109% | 101% | 108% | 81.9% | 58.3% | 24.2% | 28.4% | 94.7% | 104% | 127% | 106% | 117% | 115% | 116% | 68.9% | 73% | 28.3% | 31.9% | 112% | 123% | 112% | 111% | 124% | 110% | 106% | 47.9% | 42.8% | 29.9% | 32.1%
3 | CC(C)n1cnc2c(NCCc3ccc(O)cc3)nc(-c3csc4ccccc34)nc21 | 115% | 114% | 104% | 113% | 127% | 114% | 119% | 113% | 119% | 57.1% | 24.9% | 114% | 116% | 115% | 121% | 124% | 116% | 125% | 140% | 130% | 57.1% | 29.1% | 108% | 98% | 124% | 99.4% | 121% | 116% | 144% | 139% | 51.1% | 33.8% | 13.4%
4 | CN(C(Cc1ccc(O[S+](=O)([O-])c2cccc3cnccc23)cc1)C(=O)N1CCN(c2ccccc2)CC1)[S+](=O)([O-])c1cccc2cnccc12 (stereo not drawn) | 93.8% | 81.5% | 95.8% | 101% | 93.8% | 86.3% | 95.2% | 82.6% | 91.4% | 82.5% | 66.3% | 82.5% | 97.7% | 99.8% | 94.5% | 89.2% | 101% | 93.9% | 98.4% | 93.8% | 81.6% | 56.1% | 127% | 98.3% | 109% | 113% | 103% | 120% | 132% | 95.2% | 105% | 77% | 48.4%
5 | C=CC(=O)Nc1ccc2ncnc(Nc3ccc(OCc4cccc(F)c4)c(Cl)c3)c2c1 | 92.6% | 91.8% | 114% | 115% | 107% | 95.8% | 101% | 93.3% | 13.6% | 14.7% | 9.53% | 92.9% | 85.7% | 93.5% | 91.3% | 104% | 92.6% | 93% | 94% | 21.4% | 18.3% | 11.8% | 82.4% | 93.3% | 99.9% | 96.7% | 105% | 99.4% | 98.1% | 72.4% | 22.2% | 17.1% | 12.6%
6 | C[C@H]1Oc2cc(cnc2N)-c2c(nn(C)c2C#N)CN(C)C(=O)c2ccc(F)cc21 | 106% | 132% | 125% | 108% | 119% | 126% | 123% | 123% | 131% | 106% | 101% | – | – | – | – | – | – | – | – | – | – | – | – | – | – | – | – | – | – | – | – | – | –
7 | CCN(CC)CCCC(C)Nc1nc(C)cc(Nc2ccc3nc(C)cc(N)c3c2)n1 (stereo not drawn) | 96.3% | 111% | 110% | 113% | 123% | 116% | 124% | 110% | 120% | 108% | 111% | 106% | 108% | 114% | 111% | 122% | 115% | 120% | 107% | 115% | 94.6% | 103% | 79.6% | 105% | 124% | 125% | 108% | 125% | 119% | 129% | 102% | 111% | 114%

— the supplement of paper PMC11451515
